Assay results published in BigSolDB 2.1.

N#CN=C(N)N
solubility (mole fraction)
Details | 283.15 K | 288.15 K | 293.15 K | 298.15 K | 303.15 K | 308.15 K | 313.15 K | 318.15 K | 323.15 K
in acetone | 0.00634 | 0.00658 | 0.00677 | 0.00754 | 0.00836 | 0.0102 | 0.0112 | 0.0133 | 0.0154
in acetonitrile | 0.00219 | 0.00226 | 0.00245 | 0.00273 | 0.00296 | 0.00324 | 0.00364 | 0.00447 | 0.00528
in ethanol | 0.00786 | 0.00861 | 0.00936 | 0.0102 | 0.0109 | 0.0125 | 0.0142 | 0.017 | 0.0206
